Experimental data published in patent US5180825A, “Mitomycin derivatives” (Kyowa Hakko Kogyo Co., Ltd., priority 1990, dated 1993).

Tests used:
HeLa S3 cells = assay: Growth Inhibition Test on HeLa S3 Cells; type: cell-based; details: Homo sapiens, 1 hour exposure, then 72 hours incubation, Neutral Red, 550 nm
Method: Growth Inhibition Test on HeLa S3 Cells
HeLa S3 cells were suspended in a MEM medium containing 10% fetal calf serum and 2 mM glutamine at a concentration of 3×10^4 cells/ml, and 0.1 ml of the cell suspension was put into each well of a 96-well microtiter plate.
After culturing at 37° C. overnight in a carbon dioxide gas incubator, 0.05 ml of a test sample appropriately diluted with the medium was added to each well. The cells were further cultured for one hour in the carbon dioxide gas incubator and the culture supernatant was removed. The residue was washed once with a phosphate buffer saline [PBS(-)] and 0.1 ml of a fresh medium was added to each well, and the cells were further incubated at 37° C. for 72 hours in the carbon dioxide gas incubator. After removal of the supernatant, 0.1 ml of a culture medium containing 0.02% Neutral Red was added to each well, and the cells were further incubated at 37° C. for one hour in the carbon dioxide gas incubator to stain the cells. After removal of the culture supernatant, each well was washed once with a physiological saline, and the dye was extracted with 0.001 N HCl/30% methanol. Absorbance of the extract at 550 nm was measured with a microplate reader. The cell growth inhibition percentage was calculated according to the following formula from the absorbance of the extract of the cells treated with the test compound in various concentrations and that of intact cells. [formula]
From the cell growth inhibition percentage thus obtained, the concentration of the test compound which inhibits cell growth by 50% (IC50) was determined.

[1] = Acute Toxicity (single intravenous injection); details: mouse, in vivo, ddY mice, single i.v., 14 days observation, Behrens Kaerber's method
Method: A test compound was intravenously injected once to five ddY mice as one group. […] LD50 was calculated from the death rate of each group according to the Behrens Kaerber's method.

Sarcoma 180 Solid Tumor = assay: Anti-tumor Activity to Sarcoma 180 Solid Tumor; type: in vivo; details: Mus musculus, Sarcoma-180, iv, 168 h; dose of showing T/C=0.5 (tumor volume), male ddY mice, single i.v. 24 hours after s.c. implantation, measured at 7 days
Method: Anti-tumor Activity to Sarcoma 180 Solid Tumor
5×10^6 Sarcoma 180 cells were abdominally implanted into a ddY mouse and the cells were collected from the ascites of the mouse 7 days after the implantation. The cells were washed once with a sterilized physiological saline solution and then suspended in a sterilized physiological saline solution to prepare a cell suspension of 5×10^7 cells/ml. 0.1 ml of the cell suspension was subcutaneously implated into the right axillary space of each of male ddY mice weighing 20±2 g.
A test compound was dissolved in a physiological saline solution or a polyoxyethylene sorbitan monolaurate-containing physiological saline solution, and 0.1 to 0.2 ml of the solution was intravenously injected to five mice as one group 24 hours after the implatation of the tumor cells.
The anti-tumor activity of the test compound was determined by measuring the major diameter (a) and the minor diameter (b) of the tumor 7 days after the implantation of tumor cells, and the value of (a×b^2/ 2), which corresponds to the volume of the tumor, was calculated. The intended anti-tumor activity is represented by a ratio of T/C, in which C indicates the tumor volume of mice of the control group to which a physiological saline solution instead of the test compound was administered and T indicates the tumor volume of mice of the test group to which the test compound was administered. T/C at each dose given was plotted in a graph in which T/C is shown by an ordinary scale on the vertical axis and a dose is shown by a logarithmic scale on the horizontal axis. The relation between the dose and T/C was determined to be a straight line by the least-squares method. From the regression formula of the straight line thus obtained, the dose of showing T/C=0.5 is calculated to give ED50.

SMILES	IC50 (HeLa S3 cells) [nM]	LD50 at 336 h [1] [mg/kg]	ED50 (Sarcoma 180 Solid Tumor) [mg/kg]
CO[C@@]12[C@H](COC(N)=O)C3=C(C(=O)C(CSc4ccccn4)=C(N)C3=O)N1C[C@@H]1N[C@@H]12 [Compound 1, 6-Demethyl-6-[(2-pyridylthio)methyl]mitomycin C]	1800	–	–
CO[C@@]12[C@H](COC(N)=O)C3=C(C(=O)C(CSc4ncccc4O)=C(N)C3=O)N1C[C@@H]1N[C@@H]12 [Compound 2, 6-Demethyl-6-[[(3-hydroxypyridin-2-yl)thio]methyl]mitomycin C]	190	15	3.7
CO[C@@]12[C@H](COC(N)=O)C3=C(C(=O)C(CSc4ncccn4)=C(N)C3=O)N1C[C@@H]1N[C@@H]12 [Compound 3, 6-Demethyl-6-[(2-pyrimidinylthio)methyl]mitomycin C]	950	26	8.9
CO[C@@]12[C@H](COC(N)=O)C3=C(C(=O)C(CSc4nc(C)cc(C)n4)=C(N)C3=O)N1C[C@@H]1N[C@@H]12 [Compound 4, 6-Demethyl-6-[[(4,6-dimethylpyrimidin-2-yl)thio]methyl]mitomycin C]	1100	–	–
CO[C@@]12[C@H](COC(N)=O)C3=C(C(=O)C(CSC4=NCCS4)=C(N)C3=O)N1C[C@@H]1N[C@@H]12 [Compound 11, 6-Demethyl-6-[(2-thiazolinylthio)methyl]mitomycin C]	820	9.4	5.9
CO[C@@]12[C@H](COC(N)=O)C3=C(C(=O)C(CSc4nccs4)=C(N)C3=O)N1C[C@@H]1N[C@@H]12 [Compound 12, 6-Demethyl-6-[(2-thiazolylthio)methyl]mitomycin C]	1400	–	–
CO[C@@]12[C@H](COC(N)=O)C3=C(C(=O)C(CSc4nc5ccccc5s4)=C(N)C3=O)N1C[C@@H]1N[C@@H]12 [Compound 13, 6-Demethyl-6-[(2-benzothiazolylthio)methyl]mitomyc-in C]	700	> 50	36
CO[C@@]12[C@H](COC(N)=O)C3=C(C(=O)C(CS[C@@H]4O[C@H](COC(C)=O)[C@@H](OC(C)=O)[C@H](OC(C)=O)[C@H]4OC(C)=O)=C(N)C3=O)N1C[C@@H]1N[C@@H]12 [Compound 16, 6-Demethyl-6-[[(2,3,4,6-tetra-O-acetyl-β-D-glucopyranosyl)thio]methyl]mitomycin C]	1100	38	24
